According to US20160015704A1, “COMBINATIONS COMPRISING MABA COMPOUNDS AND CORTICOSTEROIDS” (ALMIRALL, S.A., priority 2013, published 2016):

System: IL-8 secretion induced by LPS in peripheral blood neutrophils
Assay: Inhibition of IL-8 secretion induced by LPS in isolated peripheral blood neutrophils (ELISA)
Type: cell-based
Conditions: Homo sapiens, Neutrophil; for inhibition at 10 pM: single agent 0.01 nM
Method: 5 Healthy subjects were included for leukocyte experiments. Pulmonary function tests (forced spirometry) and arterial blood gas measurements were performed during the days prior to sample.
Neutrophils were isolated from peripheral blood of healthy volunteers according to standard procedures established in the laboratory (Milara J et al., Respiration 2012; 83, 147-158).
Isolated neutrophils were incubated with different drugs (MABA compound, mometasone or fluticasone) or vehicle for 30 minutes before incubation with LPS (1 mcg/mL) (Lipopolysaccharide, a representative stimulus as inflammatory mediator) for 6 hours in standard cell culture conditions (37° C. and 5% CO2). Supernatant were collected to measure IL-8 (the inflammatory marker).
IL-8 (Interleukin-8) was determined by ELISA according to the standard procedure.
Data was presented as mean±SEM. Statistical analysis of results was carried out by analysis of variance (ANOVA) followed by Bonferroni test, by Student's t test, or by non-parametric tests as appropriate (GraphPad Software Inc, San Diego, Calif., USA). Significance was accepted when P<0.05.

[1] = 30 min pre-incubation, LPS 1 mcg/mL 6 h, neutrophils from healthy subjects (5 volunteers in triplicate), Table 1

COc1cc(NC(=O)OCCN(C)[C@H]2CC[C@H](OC(=O)C(O)(c3cccs3)c3cccs3)CC2)c(Cl)cc1CNC[C@H](O)c1ccc(O)c2[nH]c(=O)ccc12 [Cpd 1, trans-4-[{2-[({[2-chloro-4-({[(2R)-2-hydroxy-2-(8-hydroxy-2-oxo-1,2-dihydroquinolin-5-yl)ethyl]amino}methyl)-5-methoxyphenyl]amino}carbonyl)oxy]ethyl}-(methyl)amino]cyclohexyl hydroxy(di-2-thienyl)acetate]
inhibition at 10 pM [1]: 5.6% | inhibition at 10 pM (IL-8 secretion induced by LPS 1 mcg/mL 6 h, neutrophils from healthy subjects, Table 2): 5.6%

C[C@@H]1C[C@H]2[C@@H]3C[C@H](F)C4=CC(=O)C=C[C@]4(C)[C@@]3(F)[C@@H](O)C[C@]2(C)[C@@]1(O)C(=O)SCF [Fluticasone, fluticasone]
inhibition at 0.0001 µM (single agent 0.1 nM, IL-8 secretion induced by LPS 1 mcg/mL 6 h, neutrophils from healthy subjects, Table 2): 10.2%

C[C@@H]1C[C@H]2[C@@H]3CCC4=CC(=O)C=C[C@]4(C)[C@@]3(Cl)[C@@H](O)C[C@]2(C)[C@@]1(O)C(=O)CCl [Mometasone, mometasone]
inhibition at 10 pM [1]: 2.85%
